Earlier results, collected in US7803400B2, “Artificial low-density lipoprotein carriers for transport of substances across the blood-brain barrier” (Blanchette Rockefeller Neurosciences Institute, priority 2002, dated 2010).
pKi: −log10 of the molar value. Blank lines part the entries; values can stand above or below the molecule they belong to.

Columns and labels:
PKCC = target: T1, PKCC (Homo sapiens, UniProt Q02156)
T1 sequence (Q02156 1-737): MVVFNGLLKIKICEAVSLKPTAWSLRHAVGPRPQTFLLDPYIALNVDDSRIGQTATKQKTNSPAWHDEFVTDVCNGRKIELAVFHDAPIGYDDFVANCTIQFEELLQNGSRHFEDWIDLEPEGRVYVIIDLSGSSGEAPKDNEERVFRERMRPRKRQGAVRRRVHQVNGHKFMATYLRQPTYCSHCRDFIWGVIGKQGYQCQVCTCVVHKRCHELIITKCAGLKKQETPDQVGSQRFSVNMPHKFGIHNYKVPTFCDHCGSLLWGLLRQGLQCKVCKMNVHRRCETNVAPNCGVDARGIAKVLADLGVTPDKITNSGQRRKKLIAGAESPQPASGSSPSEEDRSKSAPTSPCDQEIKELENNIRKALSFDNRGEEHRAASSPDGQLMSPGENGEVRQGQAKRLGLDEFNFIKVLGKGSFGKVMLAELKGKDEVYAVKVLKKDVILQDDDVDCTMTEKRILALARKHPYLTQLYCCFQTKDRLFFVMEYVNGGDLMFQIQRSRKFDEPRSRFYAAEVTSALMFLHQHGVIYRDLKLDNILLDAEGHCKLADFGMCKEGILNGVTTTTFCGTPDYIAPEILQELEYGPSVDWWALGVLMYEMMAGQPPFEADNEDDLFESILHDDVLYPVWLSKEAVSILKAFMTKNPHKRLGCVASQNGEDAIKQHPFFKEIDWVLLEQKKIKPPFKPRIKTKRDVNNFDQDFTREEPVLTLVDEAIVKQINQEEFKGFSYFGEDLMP

[1] = test system: cyclin dependent kinase 2 (Cdk2); details: at 5 ng/ml
[2] = test system: murine leukemias and solid tumors

Molecule: CCCCCCCC(=O)O[C@H]1/C(=C/C(=O)OC)C[C@H]2C[C@H](CO)OC(=O)C[C@H](O)CC3CCC[C@H](C[C@@H]4CCO[C@H](/C=C/C(C)(C)[C@]1(O)O2)O4)O3 [Analog 1]
- potency relative to bryostatin-1 (PKC): about 100 times
- pKi (PKC; read-out: PKC Affin): 9.60

- concentration of maximal effect on PKC activation (PKCC): 100 nM
Molecule: CCCCCC1CC1CC1CC1CCCCCCCC(=O)O (stereo not drawn) [DCP-LA, 2-[(2-pentylcyclopropyl)methyl]cyclopropaneoctanoic acid]

Molecule: Gnidimacrin
- inhibition of Cdk2 [1]: 100%
- concentration at which it acts as PKC activator (PKC in K562 cells): ≈ 3 nM
- concentrations of potent antitumor activity [2]: 0.1 to 1 nM
